Data as given in ChEMBL document CHEMBL1153555, “Molecular mechanism of target recognition by subtilin, a class I lanthionine antibiotic” (Antimicrob Agents Chemother, 2008).
In brackets after ≈: the same amount, converted by molar mass.

Columns and labels:
[1] = system: Lactococcus lactis; assay: Antibacterial activity against Lactococcus lactis MG1614 by disk diffusion assay; format: functional
[2] = Permeability across Micrococcus luteus ATCC 4698 lipid II-containing unilamellar vesicle of 1,2-dioleoyl-sn-gltcero-3-phosphocholine and 1,2-dioleoyl-sn-glycero-3-phosphoglycerol assessed as partial leakage after disintegration of vesicles at lower concentration by carboxyfluorescein leakage assay; format: ADME

SMILES	MIC [1] [µg/mL]	permeability [2] [%]
C=C1NC(=O)[C@H](CCC(=O)O)NC(=O)[C@H](NC(=O)[C@@H](N)CCCCN)CSC[C@@H](C(=O)N[C@H]2C(=O)N3CCC[C@H]3C(=O)NCC(=O)N[C@H](C(=O)N[C@H](C(=O)N[C@H]3C(=O)NCC(=O)N[C@@H](C)C(=O)N[C@@H](CC(C)C)C(=O)N[C@@H](CCC(N)=O)C(=O)N/C(=C\C)C(=O)N[C@H](C(=O)N[C@@H](Cc4ccccc4)C(=O)N[C@@H](CC(C)C)C(=O)N[C@@H](CCC(N)=O)C(=O)N[C@H]4C(=O)N[C@@H](CC(C)C)C(=O)N[C@H]5C(=O)N[C@@H](CS[C@H]4C)C(=O)N[C@@H](CC(N)=O)C(=O)N[C@H](C(=O)N[C@@H](CCCCN)C(=O)O)CS[C@H]5C)CS[C@H]3C)C(C)C)CS[C@H]2C)NC(=O)[C@H](CC(C)C)NC1=O	> 50	
C=C1NC(=O)CC[C@@H](C(=O)O)NC(=O)[C@H](NC(=O)[C@H](CCCCN)NC(=O)[C@@H](N)Cc2c[nH]c3ccccc23)CSC[C@@H](C(=O)N[C@@H]2C(=O)N3CCC[C@H]3C(=O)NCC(=O)N[C@H](C(=O)N[C@H](C(=O)N[C@@H]3C(=O)NCC(=O)N[C@@H](C)C(=O)N[C@@H](CC(C)C)C(=O)N[C@@H](CCC(N)=O)C(=O)N/C(=C/C)C(=O)N[C@H](C(=O)N[C@@H](Cc4ccccc4)C(=O)N[C@@H](CC(C)C)C(=O)N[C@@H](CCC(N)=O)C(=O)N[C@@H]4C(=O)N[C@@H](CC(C)C)C(=O)N[C@H]5C(=O)N[C@@H](CSC4C)C(=O)NC(=O)[C@H](CC(N)=O)N[C@H](C(=O)N[C@@H](CCCCN)C(=O)O)CSC5C)CSC3C)C(C)C)CSC2C)N[C@@H](CC(C)C)C(=O)NC1=O (stereo not given in full)	11.5 (≈ 3.82 µM)	
C=C(NC(=O)[C@@H](NC(=O)[C@H](CCCCN)NC(=O)[C@@H]1CS[C@@H](C)[C@H]2NC(=O)[C@H](CC(C)C)NC(=O)[C@H](NC(=O)[C@H](CCC(N)=O)NC(=O)[C@H](CC(C)C)NC(=O)[C@H](Cc3ccccc3)NC(=O)[C@@H]3CS[C@@H](C)[C@@H](NC(=O)[C@@H](NC(=O)[C@@H]4CS[C@@H](C)[C@@H](NC(=O)[C@@H]5CSC[C@@H](NC(=O)[C@H](CCCCN)NC(=O)[C@H](Cc6c[nH]c7ccccc67)NC(=O)CCC(=O)O)C(=O)N[C@@H](CCC(=O)O)C(=O)NC(=C)C(=O)N[C@@H](CC(C)C)C(=O)N5)C(=O)N5CCC[C@H]5C(=O)NCC(=O)N4)C(C)C)C(=O)NCC(=O)N[C@@H](C)C(=O)N[C@@H](CC(C)C)C(=O)N[C@@H](CCC(N)=O)C(=O)N/C(=C\C)C(=O)N3)[C@H](C)SC[C@H](NC2=O)C(=O)N[C@@H](CC(N)=O)C(=O)N1)[C@@H](C)CC)C(=O)N[C@@H](CCCCN)C(=O)O	19.2 (≈ 5.6 µM)	
C=C(NC(=O)[C@@H](NC(=O)[C@H](CCCCN)NC(=O)[C@@H]1CS[C@@H](C)[C@H]2NC(=O)[C@H](CC(C)C)NC(=O)[C@H](NC(=O)[C@H](CCC(N)=O)NC(=O)[C@H](CC(C)C)NC(=O)[C@H](Cc3ccccc3)NC(=O)[C@@H]3CS[C@@H](C)[C@@H](NC(=O)[C@@H](NC(=O)[C@@H]4CS[C@@H](C)[C@@H](NC(=O)[C@@H]5CSC[C@@H](NC(=O)[C@H](CCCCN)NC(=O)[C@@H](N)Cc6c[nH]c7ccccc67)C(=O)N[C@@H](CCC(=O)O)C(=O)NC(=C)C(=O)N[C@@H](CC(C)C)C(=O)N5)C(=O)N5CCC[C@H]5C(=O)NCC(=O)N4)C(C)C)C(=O)NCC(=O)N[C@@H](C)C(=O)N[C@@H](CC(C)C)C(=O)N[C@@H](CCC(N)=O)C(=O)N/C(=C\C)C(=O)N3)[C@H](C)SC[C@H](NC2=O)C(=O)N[C@@H](CC(N)=O)C(=O)N1)[C@@H](C)CC)C(=O)N[C@@H](CCCCN)C(=O)O [SUBTILIN]		20
C=C1NC(=O)CC[C@@H](C(=O)O)NC(=O)[C@H](NC(=O)[C@H](CCCCN)NC(=O)[C@@H](N)Cc2c[nH]c3ccccc23)CSC[C@@H](C(=O)N[C@@H]2C(=O)N3CCC[C@H]3C(=O)NCC(=O)N[C@H](C(=O)N[C@H](C(=O)N[C@@H]3C(=O)NCC(=O)N[C@@H](C)C(=O)N[C@@H](CC(C)C)C(=O)N[C@@H](CCC(N)=O)C(=O)N/C(=C/C)C(=O)N[C@H](C(=O)N[C@@H](Cc4ccccc4)C(=O)N[C@@H](CC(C)C)C(=O)N[C@@H](CCC(N)=O)C(=O)N[C@@H]4C(=O)N[C@@H](CC(C)C)C(=O)N[C@H]5C(=O)N[C@@H](CSC4C)C(=O)NC(=O)[C@H](CC(N)=O)N[C@H](C(=O)N[C@@H](CCCCN)C(=O)N[C@H](C(=O)NC(=C)C(=O)N[C@@H](CCCCN)C(=O)O)[C@@H](C)CC)CSC5C)CSC3C)C(C)C)CSC2C)N[C@@H](CC(C)C)C(=O)NC1=O (stereo not given in full) [SUBTILIN]	1.13 (≈ 0.34 µM)	
